Organism: Rattus norvegicus
Experiment: DrugMatrix - Regimen: Daily Repeat
Type: toxicity, organism-based, Sprague-Dawley
Parameters: regimen Daily Repeat, gender Male, age 6-8 weeks
Settings: in vivo, iv, vehicle 100 % SALINE; for ABSOLUTE BASOPHIL / ABSOLUTE EOSINOPHIL / ABSOLUTE LYMPHOCYTE / ABSOLUTE MONOCYTE / ABSOLUTE SEGMENTED NEUTROPHIL / BASOPHIL / EOSINOPHIL / ERYTHROCYTE COUNT / HEMATOCRIT / HEMOGLOBIN / LEUKOCYTE COUNT / LYMPHOCYTE / MEAN CORPUSCULAR HEMOGLOBIN / MEAN CORPUSCULAR HEMOGLOBIN CONCENTRATION / MEAN CORPUSCULAR VOLUME / MONOCYTE / NEUTROPHIL / NUCLEATED RED BLOOD CELLS / PLATELET COUNT: tissue Blood; for ALANINE AMINOTRANSFERASE / ALBUMIN / ALKALINE PHOSPHATASE / ASPARTATE AMINOTRANSFERASE / BLOOD UREA NITROGEN / CARBON DIOXIDE / CHLORIDE / CHOLESTEROL / CREATINE PHOSPHOKINASE / CREATININE / GLUCOSE / LACTATE DEHYDROGENASE / LIPASE / PHOSPHORUS / POTASSIUM / SODIUM / TOTAL BILIRUBIN / TOTAL PROTEIN / URIC ACID: tissue Plasma
[1] = 23 mg/kg, 120 h, dose level Low, time 5 day
[2] = 487 mg/kg, 72 h, dose level High, time 3 day
[3] = 487 mg/kg, 120 h, dose level High, time 5 day

Nc1ccn([C@@H]2O[C@H](CO)[C@@H](O)[C@@H]2O)c(=O)n1 [CYTARABINE]
ABSOLUTE BASOPHIL [1]: 0 CELLS/uL
ABSOLUTE EOSINOPHIL [1]: 0 CELLS/uL
ABSOLUTE LYMPHOCYTE [1]: 5539 CELLS/uL
ABSOLUTE MONOCYTE [1]: 16.67 CELLS/uL
ABSOLUTE SEGMENTED NEUTROPHIL [1]: 244.33 CELLS/uL
BASOPHIL [1]: 0%
EOSINOPHIL [1]: 0%
ERYTHROCYTE COUNT [1]: 5.12 x10E6/uL
HEMATOCRIT [1]: 33.83%
HEMOGLOBIN [1]: 13.53 G/DL
LEUKOCYTE COUNT [1]: 5.8 x10E3/uL
LYMPHOCYTE [1]: 95%
MEAN CORPUSCULAR HEMOGLOBIN [1]: 26.47 pg
MEAN CORPUSCULAR HEMOGLOBIN CONCENTRATION [1]: 40 G/DL
MEAN CORPUSCULAR VOLUME [1]: 66.2 fL
MONOCYTE [1]: 0.33%
NEUTROPHIL [1]: 4.67%
NUCLEATED RED BLOOD CELLS [1]: 0 /100WBC
PLATELET COUNT [1]: 1095.67 x10E3/uL
ALANINE AMINOTRANSFERASE [1]: 41.67 u/L
ALBUMIN [1]: 4.1 G/DL
ALKALINE PHOSPHATASE [1]: 306.67 u/L
ASPARTATE AMINOTRANSFERASE [1]: 78.33 u/L
BLOOD UREA NITROGEN [1]: 12.67 mg/dL
CARBON DIOXIDE [1]: 26.33 mmol/L
CHLORIDE [1]: 99.33 MEQ/L
CHOLESTEROL [1]: 67.67 mg/dL
CREATINE PHOSPHOKINASE [1]: 261.33 u/L
CREATININE [1]: 0.21 mg/dL
GLUCOSE [1]: 172 mg/dL
LACTATE DEHYDROGENASE [1]: 75 u/L
LIPASE [1]: 11.33 u/L
PHOSPHORUS [1]: 10.17 mg/dL
POTASSIUM [1]: 5.08 MEQ/L
SODIUM [1]: 144.13 MEQ/L
TOTAL BILIRUBIN [1]: 0.17 mg/dL
TOTAL PROTEIN [1]: 5.77 G/DL
URIC ACID [1]: 0.87 mg/dL
ABSOLUTE BASOPHIL [2]: 0 CELLS/uL
ABSOLUTE EOSINOPHIL [2]: 62 CELLS/uL
ABSOLUTE LYMPHOCYTE [2]: 7623.33 CELLS/uL
ABSOLUTE MONOCYTE [2]: 62 CELLS/uL
ABSOLUTE SEGMENTED NEUTROPHIL [2]: 686 CELLS/uL
BASOPHIL [2]: 0%
EOSINOPHIL [2]: 0.67%
ERYTHROCYTE COUNT [2]: 4.4 x10E6/uL
HEMATOCRIT [2]: 28.67%
HEMOGLOBIN [2]: 11.3 G/DL
LEUKOCYTE COUNT [2]: 8.43 x10E3/uL
LYMPHOCYTE [2]: 91.33%
MEAN CORPUSCULAR HEMOGLOBIN [2]: 25.7 pg
MEAN CORPUSCULAR HEMOGLOBIN CONCENTRATION [2]: 39.4 G/DL
MEAN CORPUSCULAR VOLUME [2]: 65.13 fL
MONOCYTE [2]: 0.67%
NEUTROPHIL [2]: 7.33%
NUCLEATED RED BLOOD CELLS [2]: 0 /100WBC
PLATELET COUNT [2]: 1093.33 x10E3/uL
ALANINE AMINOTRANSFERASE [2]: 45.67 u/L
ALBUMIN [2]: 4.07 G/DL
ALKALINE PHOSPHATASE [2]: 302.33 u/L
ASPARTATE AMINOTRANSFERASE [2]: 81.33 u/L
BLOOD UREA NITROGEN [2]: 12 mg/dL
CARBON DIOXIDE [2]: 31 mmol/L
CHLORIDE [2]: 101.67 MEQ/L
CHOLESTEROL [2]: 77.67 mg/dL
CREATINE PHOSPHOKINASE [2]: 242.33 u/L
CREATININE [2]: 0.19 mg/dL
GLUCOSE [2]: 168.33 mg/dL
LACTATE DEHYDROGENASE [2]: 55.33 u/L
LIPASE [2]: 10.67 u/L
PHOSPHORUS [2]: 10.87 mg/dL
POTASSIUM [2]: 5.4 MEQ/L
SODIUM [2]: 145.23 MEQ/L
TOTAL BILIRUBIN [2]: 0.2 mg/dL
TOTAL PROTEIN [2]: 5.93 G/DL
URIC ACID [2]: 0.8 mg/dL
ABSOLUTE BASOPHIL [3]: 0 CELLS/uL
ABSOLUTE EOSINOPHIL [3]: 10 CELLS/uL
ABSOLUTE LYMPHOCYTE [3]: 3604.33 CELLS/uL
ABSOLUTE MONOCYTE [3]: 0 CELLS/uL
ABSOLUTE SEGMENTED NEUTROPHIL [3]: 152.33 CELLS/uL
BASOPHIL [3]: 0%
EOSINOPHIL [3]: 0.33%
ERYTHROCYTE COUNT [3]: 4.2 x10E6/uL
HEMATOCRIT [3]: 26.53%
HEMOGLOBIN [3]: 10.7 G/DL
LEUKOCYTE COUNT [3]: 3.77 x10E3/uL
LYMPHOCYTE [3]: 95.67%
MEAN CORPUSCULAR HEMOGLOBIN [3]: 25.43 pg
MEAN CORPUSCULAR HEMOGLOBIN CONCENTRATION [3]: 40.37 G/DL
MEAN CORPUSCULAR VOLUME [3]: 63.07 fL
MONOCYTE [3]: 0%
NEUTROPHIL [3]: 4%
NUCLEATED RED BLOOD CELLS [3]: 0 /100WBC
PLATELET COUNT [3]: 1216.67 x10E3/uL
ALANINE AMINOTRANSFERASE [3]: 41.67 u/L
ALBUMIN [3]: 4.1 G/DL
ALKALINE PHOSPHATASE [3]: 275.33 u/L
ASPARTATE AMINOTRANSFERASE [3]: 82.33 u/L
BLOOD UREA NITROGEN [3]: 13.33 mg/dL
CARBON DIOXIDE [3]: 26 mmol/L
CHLORIDE [3]: 100.67 MEQ/L
CHOLESTEROL [3]: 71.33 mg/dL
CREATINE PHOSPHOKINASE [3]: 326 u/L
CREATININE [3]: 0.23 mg/dL
GLUCOSE [3]: 159 mg/dL
LACTATE DEHYDROGENASE [3]: 65 u/L
LIPASE [3]: 11 u/L
PHOSPHORUS [3]: 9.23 mg/dL
POTASSIUM [3]: 5.41 MEQ/L
SODIUM [3]: 145.37 MEQ/L
TOTAL BILIRUBIN [3]: 0.2 mg/dL
TOTAL PROTEIN [3]: 5.7 G/DL
URIC ACID [3]: 0.57 mg/dL
